Measured values taken from US10183036B2, “Use of nicotinic acid riboside or nicotinamide riboside derivatives, and reduced derivatives thereof, as NAD+ increasing precursors” (Chromadex Inc., priority 2016, dated 2019).

Key:
Hela cells = experiment: NAD content in cultured Hela cells supplemented with NAD+ precursor (EnzyChrom NAD+/NADH assay kit); format: cell-based; conditions: 100 μM precursor, 24 h at 37° C., control = 100.0; for activity at 100 µM: Homo sapiens
Description: Hela cells (passages 5-9) were grown in cell culture medium DMEM with 10% serum and were seeded in 6-well plates with a density of 3×10^5 cells per well containing 1 ml of culture medium overnight. The wells were aspirated, washed with PBS and 2 mL of fresh cell culture media was added. […] The media was aspirated and the wells washed with PBS, and for each condition 1×10^5 cells were isolated and analyzed using an ENZYCHROM™ NAD+/NADH ASSAY KIT (E2ND-100) following the manufacturer protocol (BioAssay Systems, Hayward, Calif.). This standard assay provides a quantitative colorimetric determination of NAD+/NADH at 565 nm.
Further, FIG. 9 presents the same data as a fold-increase in NAD over control. FIG. 8 presents a measurement of absolute NAD values (μM) in Hela cells (n=4) cultured in growth media supplemented with 100 μM of the corresponding NAD^+ precursor (nicotinyl riboside test compound) for 24 hours, versus control (NAD content in cells measured in the absence of treatment compound). A control value was determined for each replicate data set.

[1] = Stability in aqueous solution at various temperature and pH; format: physicochemical
Description: Nicotinamide riboside (NR) was prepared in 1000 ppm aqueous solution (w/v) at 2.5, 3.5 and 4.7 pH levels. Nicotinic acid riboside (NAR) was prepared n 1000 ppm aqueous solution (w/v) at 2.5, 3.5 and 6.2 pH levels. The six sample solutions were aliquoted into various small sealed vials to be used as individual sample pull points for analysis.

cells = conditions: Kulikova et al. 2015; cited from earlier work

CC(=O)O[C@@H]1[C@@H](COC(=O)c2cccnc2)OC(=O)[C@@H]1OC(C)=O [cyclic, 2′,3′-diacetyl-5′-nicotinoyl ribolactone]
NAD % vs control (Hela cells): 178.0%

CC(=O)OC[C@H]1O[C@@H]([n+]2cccc(C(=O)O)c2)[C@H](OC(C)=O)[C@@H]1OC(C)=O [NAR TA, 1-(2′,3′,5′-triacetyl-beta-D-ribofuranosyl)-nicotinic acid]
activity at 100 µM (Hela cells): 173%

O=C(O)c1ccc[n+]([C@@H]2O[C@H](CO)[C@H](O)[C@H]2O)c1 [NAR, Nicotinic acid riboside]
assay (concentration remaining) after storage ([1]; 1000 ppm aqueous solution, 4° C., after 140 days): greater than 95%
stability in comparison to NR ([1]; aqueous solution, 4° C. and 25° C., all measured pH levels): much greater stability
stability over time in weeks ([1]; aqueous solution, higher temperature and lower pH): markedly decreased
activity at 100 µM (Hela cells): 295%
concentration that supports cell survival (cells): about 1 micromolar

CC(=O)OC[C@H]1O[C@@H]([n+]2cccc(C(N)=O)c2)[C@H](OC(C)=O)[C@@H]1OC(C)=O [NR TA, 1-(2′,3′,5′-triacetyl-beta-D-ribofuranosyl)-nicotinamide]
activity at 100 µM (Hela cells): 199%

NC(=O)c1ccc[n+]([C@@H]2O[C@H](CO)[C@@H](O)[C@H]2O)c1 [NR, Nicotinamide riboside]
activity at 100 µM (Hela cells): 141%
amount required to maintain viability relative to NAR (cells): 10 times

CC(=O)OC[C@H]1O[C@@H](N2C=CCC(C(N)=O)=C2)[C@H](OC(C)=O)[C@@H]1OC(C)=O [NRH TA, 1-(2′,3′,5′-triacetyl-beta-D-ribofuranosyl)-1,4-dihydronicotinamide]
activity at 100 µM (Hela cells): 146%

O=C(O)C1=CN([C@@H]2O[C@H](CO)[C@@H](O)[C@H]2O)C=CC1 [NARH, 1-(beta-D-ribofuranosyl)-1,4-dihydronicotinic acid]
activity at 100 µM (Hela cells): 147%
